Drawing on patent US6756377B2, “Compounds and their use” (Biovitrum AB, priority 2000, dated 2004), this text covers body weight, food intake and Ki for five compounds.

The conditions of test [1]: cited from earlier work.
Test [2] has as its system 5-HT2c receptor. The settings on record: mice expressing the mutated inactive form of the 5-HT2c receptor; cited from earlier work.
Test [3] deals with T1, 5-HT2c receptor (Mus musculus, UniProt P34968).
T1 construct: mice that express the normal 5-HT2c receptor; host or cells: mice (in vivo)
T1 sequence (P34968 33-459): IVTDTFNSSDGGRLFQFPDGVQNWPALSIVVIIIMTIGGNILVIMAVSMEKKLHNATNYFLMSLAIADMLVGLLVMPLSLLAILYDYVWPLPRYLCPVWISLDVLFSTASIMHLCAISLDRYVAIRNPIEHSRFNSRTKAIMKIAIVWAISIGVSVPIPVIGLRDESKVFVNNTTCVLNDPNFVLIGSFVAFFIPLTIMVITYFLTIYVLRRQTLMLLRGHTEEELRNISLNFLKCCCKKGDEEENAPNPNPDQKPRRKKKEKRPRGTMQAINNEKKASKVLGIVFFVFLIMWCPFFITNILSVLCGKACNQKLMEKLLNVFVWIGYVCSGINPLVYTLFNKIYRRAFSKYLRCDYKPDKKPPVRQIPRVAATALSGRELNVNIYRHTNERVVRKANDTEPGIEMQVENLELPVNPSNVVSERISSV
The settings on record: mice that express the normal 5-HT2c receptor; cited from earlier work.

Test [4] deals with T2, human 5-HT2c receptor protein (Homo sapiens, UniProt P28335).
T2 construct: expressed in transfected cells; host or cells: HEK293 (membranes)
T2 sequence (P28335 33-458): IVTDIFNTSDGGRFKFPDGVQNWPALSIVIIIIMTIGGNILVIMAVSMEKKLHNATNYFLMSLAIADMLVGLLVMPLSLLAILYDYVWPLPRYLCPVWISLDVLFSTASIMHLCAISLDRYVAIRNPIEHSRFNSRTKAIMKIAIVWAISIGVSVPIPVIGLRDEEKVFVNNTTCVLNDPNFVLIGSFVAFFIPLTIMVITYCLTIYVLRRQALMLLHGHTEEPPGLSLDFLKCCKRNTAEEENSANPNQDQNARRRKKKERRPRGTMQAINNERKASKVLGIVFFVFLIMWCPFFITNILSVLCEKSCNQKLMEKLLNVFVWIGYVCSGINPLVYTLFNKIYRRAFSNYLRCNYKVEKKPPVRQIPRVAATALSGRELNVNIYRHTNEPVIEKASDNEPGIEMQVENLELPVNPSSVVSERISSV
Kind of test: 5-HT2c receptor affinity assay (displacement of 3H-labelled 5-HT, Scintillation Proximity Assay). The settings on record: membranes of transfected HEK293 cells; 3H-5-HT displacement; non-specific binding 5 μM mianserin. How it is done: The 5-HT2c receptor affinity of compounds in the Examples was determined in competition experiments, where the ability of each compound in serial dilution to displace ^3H-labelled 5-HT, bound to membranes prepared from a transfected HEK293 cell line stably expressing the human 5-HT2c receptor protein, was monitored by Scintillation Proximity Assay technology. Non-specific binding was defined using 5 μM mianserin. Typically, the 5HT2c receptor affinity values (Ki, nM) were in the range of 1 nM to 1500 nM, preferably 1 nM to 100 nM.
A general note: In a radioligand displacement assay an active substance lowers the binding of a labelled ligand.

Like-named read-outs stand apart in the source and are kept apart here.

As for `CCN[C@@H](C)Cc1cccc(C(F)(F)F)c1` [dexfenflurarnine], the body weight result in test [1] (controlled clinical studies) is given as “weight reduction”.

On to `Clc1cccc(N2CCNCC2)c1` [mCPP, m-chlorophenylpiperazine], for which the figures for the food intake entry in the test on 5-HT2c receptor [2] and at 5-HT2c receptor [3] were “lacks activity” and “reduces food intake”, respectively. Further, in test [1] (obese subjects, after 2 weeks of treatment), the body weight result is “slight but sustained reduction in body weight”.

`CC(C)NCc1cccc(OCCOc2nccnc2N2CCNCC2)c1` [Example 5, 2-(1-Piperazinyl)-3-{2-[3-{(isopropylamino)methyl}phenoxy]ethoxy}pyrazine] gave a Ki in test [4] of 3 nM. This lies in the single-digit nanomolar range.

In test [4], `c1cc(CN2CCOCC2)cc(OCCOc2nccnc2N2CCNCC2)c1` [Example 1, 2-(1-Piperazinyl)-3-{2-[3-(4-morpholinylmethyl)phenoxy]ethoxy}pyrazine] returned a Ki of 18 nM.

As for `CNCCC(Oc1ccc(C(F)(F)F)cc1)c1ccccc1` (stereo not shown) [fluoxetine], the body weight entry in test [1] (controlled clinical studies) is “weight reduction”.

For orientation: Ki means the equilibrium dissociation constant of an inhibitor or competing ligand from its target. Read a low Ki as a stronger hold on the target.
